target: T1, GST-RIPK1 (recombinant GST-RIPK1 kinase domain (residues 1-327)) (Homo sapiens, UniProt Q13546); experiment: RIPK1-ADP-Glo Enzymatic Assay; format: biochemical; conditions: ten-point titration, top compound concentration of 100000 nM; 25 nM GST-RIPK1, 300 μM ATP, 3 μM dephosphorylated-MBP; 30 min pre-incubation, 150 min reaction
T1 construct: recombinant GST-RIPK1 kinase domain (residues 1-327) enzyme produced from baculovirus-transfected Sf21 cells; host or cells: baculovirus-transfected Sf21 insect cells
T1 sequence (Q13546 1-327): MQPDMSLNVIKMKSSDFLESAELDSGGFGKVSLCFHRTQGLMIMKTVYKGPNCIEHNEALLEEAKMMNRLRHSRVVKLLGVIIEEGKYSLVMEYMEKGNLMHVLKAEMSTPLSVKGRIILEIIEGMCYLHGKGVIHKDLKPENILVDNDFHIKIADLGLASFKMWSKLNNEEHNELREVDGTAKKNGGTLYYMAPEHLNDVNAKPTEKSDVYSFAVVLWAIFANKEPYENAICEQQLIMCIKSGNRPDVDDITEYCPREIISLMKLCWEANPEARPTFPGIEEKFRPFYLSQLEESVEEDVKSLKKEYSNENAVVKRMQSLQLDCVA
Outline: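 ADP-Glo luminescence quantifies ADP formed over 150 minutes by 25 nM Sf21-produced GST-RIPK1 (1-327) using 300 μM ATP and 3 μM dephosphorylated MBP, following 30-minute compound preincubation at 1% DMSO. Ten-point 1:3 series from 100000 nM gave EC50 via four-parameter sigmoidal regression.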

SMILES | EC50 [nM]
O=C1N2C(CC[C@H]2c2cnccn2)OC12CC(OCc1cccc(N3CCCC3)n1)C2 (stereo partly drawn) [Example 18.96, (5′S)-5′-(pyrazin-2-yl)-3-{[6-(pyrrolidin-1-yl)pyridin-2-yl]methoxy}tetrahydro-3′H-spiro[cyclobutane-1,2′-pyrrolo[2,1-b][1,3]oxazol]-3′-one] | 225
O=C1N2C(CC[C@H]2c2cnccn2)OC12CC(OCc1ccc3nc(C(F)(F)F)sc3c1)C2 (stereo partly drawn) [Example 18.97, (5′S)-5′-(pyrazin-2-yl)-3-{[2-(trifluoromethyl)-1,3-benzothiazol-6-yl]methoxy}tetrahydro-3′H-spiro[cyclobutane-1,2′-pyrrolo[2,1-b][1,3]oxazol]-3′-one] | 289
N#Cc1cccc(F)c1COC1CC2(C1)OC1CC[C@@H](c3cnccn3)N1C2=O (stereo partly drawn) [Example 18.100, 3-fluoro-2-({[(5′S)-3′-oxo-5′-(pyrazin-2-yl)tetrahydro-3′H-spiro[cyclobutane-1,2′-pyrrolo[2,1-b][1,3]oxazol]-3-yl]oxy}methyl)benzonitrile] | 472
O=C1N2C(CC[C@H]2c2cnccn2)OC12CC(OCc1cnn(-c3ccncc3)c1)C2 (stereo partly shown) [Example 18.101] | 367
O=C1N2C(CC[C@H]2c2cnccn2)OC12CC(OCc1ccccc1-n1cccn1)C2 (stereo partly drawn) [Example 18.102, (5′S)-5′-(pyrazin-2-yl)-3-{[2-(1H-pyrazol-1-yl)phenyl]methoxy}tetrahydro-3′H-spiro[cyclobutane-1,2′-pyrrolo[2,1-b][1,3]oxazol]-3′-one] | 736
O=C1N2C(CC[C@H]2c2cnccn2)OC12CC(OCc1ccc3nc(C(F)(F)F)cn3c1)C2 (stereo partly shown) [Example 18.103] | 607
N#Cc1ccoc1COC1CC2(C1)OC1CC[C@@H](c3cnccn3)N1C2=O (stereo partly drawn) [Example 18.104, 2-({[(5′S)-3′-oxo-5′-(pyrazin-2-yl)tetrahydro-3′H-spiro[cyclobutane-1,2′-pyrrolo[2,1-b][1,3]oxazol]-3-yl]oxy}methyl)furan-3-carbonitrile] | 355
O=C1N2C(CC[C@H]2c2cnccn2)OC12CC(OCc1ccc(OC3CCOCC3)nc1)C2 (stereo partly drawn) [Example 18.106, (5′S)-3-({6-[(oxan-4-yl)oxy]pyridin-3-yl}methoxy)-5′-(pyrazin-2-yl)tetrahydro-3′H-spiro[cyclobutane-1,2′-pyrrolo[2,1-b][1,3]oxazol]-3′-one] | 569
Cc1ccc(OC2CC3(C2)O[C@@H]2CC[C@@H](c4ccn(C)n4)N2C3=O)cn1 (stereo partly drawn) [Example 19.7, (5′S,7a′R)-5′-(1-methyl-1H-pyrazol-3-yl)-3-[(6-methylpyridin-3-yl)oxy]tetrahydro-3′H-spiro[cyclobutane-1,2′-pyrrolo[2,1-b][1,3]oxazol]-3′-one] | 531
Cn1ccc([C@@H]2CC[C@H]3OC4(CC(Oc5cccnc5)C4)C(=O)N32)n1 (stereo partly drawn) [Example 19.8, (5′S,7a′R)-5′-(1-methyl-1H-pyrazol-3-yl)-3-[(pyridin-3-yl)oxy]tetrahydro-3′H-spiro[cyclobutane-1,2′-pyrrolo[2,1-b][1,3]oxazol]-3′-one] | 474
Cn1ccc([C@@H]2CC[C@H]3OC4(CC(Oc5cncc(Cl)c5)C4)C(=O)N32)n1 (stereo partly drawn) [Example 19.9, (5′S,7a′R)-3-[(5-chloropyridin-3-yl)oxy]-5′-(1-methyl-1H-pyrazol-3-yl)tetrahydro-3′H-spiro[cyclobutane-1,2′-pyrrolo[2,1-b][1,3]oxazol]-3′-one] | 397
Cn1ccc([C@@H]2CC[C@H]3OC4(CC(Oc5cccnc5)C4)C(=O)N32)n1 (stereo partly drawn) [Example 19.11, (5′S,7a′R)-5′-(1-methyl-1H-pyrazol-3-yl)-3-[(pyridin-3-yl)oxy]tetrahydro-3′H-spiro[cyclobutane-1,2′-pyrrolo[2,1-b][1,3]oxazol]-3′-one] | 209
Cc1ccc(OC2CC3(C2)O[C@@H]2CC[C@@H](c4ccn(C)n4)N2C3=O)cn1 (stereo partly drawn) [Example 19.12, (5′S,7a′R)-5′-(1-methyl-1H-pyrazol-3-yl)-3-[(6-methylpyridin-3-yl)oxy]tetrahydro-3′H-spiro[cyclobutane-1,2′-pyrrolo[2,1-b][1,3]oxazol]-3′-one] | 790

Continued by falling EC50, values first:

EC50 [nM] | SMILES
205 | COCCOc1ccc(COC2CC3(C2)OC2CC[C@@H](c4cnccn4)N2C3=O)cc1 (stereo partly drawn) [Example 18.99, (5′S)-3-{[4-(2-methoxyethoxy)phenyl]methoxy}-5′-(pyrazin-2-yl)tetrahydro-3′H-spiro[cyclobutane-1,2′-pyrrolo[2,1-b][1,3]oxazol]-3′-one]
203 | Cn1ccc([C@@H]2CC[C@H]3O[C@]4(C[C@@H](Oc5cccc(C#N)c5)C4)C(=O)N32)n1 [Example 19.6, 3-{[(1s,3S,5′S,7a′R)-5′-(1-methyl-1H-pyrazol-3-yl)-3′-oxotetrahydro-3′H-spiro[cyclobutane-1,2′-pyrrolo[2,1-b][1,3]oxazol]-3-yl]oxy}benzonitrile]
198 | N#CCc1ncc(COC2CC3(C2)OC2CC[C@@H](c4cnccn4)N2C3=O)cc1Cl (stereo partly drawn) [Example 18.98, [3-chloro-5-({[(5′S)-3′-oxo-5′-(pyrazin-2-yl)tetrahydro-3′H-spiro[cyclobutane-1,2′-pyrrolo[2,1-b][1,3]oxazol]-3-yl]oxy}methyl)pyridin-2-yl]acetonitrile]
94 | O=C1N2C(CC[C@H]2c2cnccn2)OC12CC(OCc1ccc3c(c1)CCO3)C2 (stereo partly drawn) [Example 18.108, (5′S)-3-((2,3-dihydrobenzofuran-5-yl)methoxy)-5′-(pyrazin-2-yl)tetrahydro-3′H-spiro[cyclobutane-1,2′-pyrrolo[2,1-b]oxazol]-3′-one]
66 | CCc1nnc(-c2ccc(COC3CC4(C3)OC3CC[C@@H](c5cnccn5)N3C4=O)cc2)o1 (stereo partly drawn) [Example 18.105, (5′S)-3-{[4-(5-ethyl-1,3,4-oxadiazol-2-yl)phenyl]methoxy}-5′-(pyrazin-2-yl)tetrahydro-3′H-spiro[cyclobutane-1,2′-pyrrolo[2,1-b][1,3]oxazol]-3′-one]
44 | O=C1N2[C@@H](CC[C@H]2c2cnccn2)OC12CC(OCc1ccc3cnoc3c1)C2 (stereo partly drawn) [Example 18.110, (5′S,7a′R)-3-(benzo[d]isoxazol-6-ylmethoxy)-5′-(pyrazin-2-yl)tetrahydro-3′H-spiro[cyclobutane-1,2′-pyrrolo [2,1-b]oxazol]-3′-one]
34 | O=C1N2C(CC[C@H]2c2cnccn2)OC12CC(OCc1cc3cncnc3s1)C2 (stereo partly drawn) [Example 18.107, (5′S)-5′-(pyrazin-2-yl)-3-(thieno[2,3-d]pyrimidin-6-ylmethoxy)tetrahydro-3′H-spiro[cyclobutane-1,2′-pyrrolo[2,1-b]oxazol]-3′-one]
33 | N#Cc1cc(F)cc(OC2CC3(C2)O[C@@H]2CC[C@@H](c4cnccn4)N2C3=O)c1 (stereo partly drawn) [Example 19.4, 3-fluoro-5-{[(5′S,7a′R)-3′-oxo-5′-(pyrazin-2-yl)tetrahydro-3′H-spiro[cyclobutane-1,2′-pyrrolo[2,1-b][1,3]oxazol]-3-yl]oxy}benzonitrile]
31 | O=C1N2[C@@H](CC[C@H]2c2cnccn2)O[C@]12C[C@@H](Oc1cccnc1)C2 [Example 19.1, (5′S,7a′R)-5′-(pyrazin-2-yl)-3-(pyridin-3-yloxy)tetrahydro-3′H-spiro[cyclobutane-1,2′-pyrrolo[2,1-b]oxazol]-3′-one]
30 | Cn1ccc([C@@H]2CC[C@H]3OC4(CC(Oc5cccc(-c6ccnn6C)c5)C4)C(=O)N32)n1 (stereo partly drawn) [Example 19.10, (5′S,7a′R)-5′-(1-methyl-1H-pyrazol-3-yl)-3-[3-(1-methyl-1H-pyrazol-5-yl)phenoxy]tetrahydro-3′H-spiro[cyclobutane-1,2′-pyrrolo[2,1-b][1,3]oxazol]-3′-one]
25 | N#Cc1cccc(COC2CC3(C2)O[C@@H]2CC[C@@H](c4cnccn4)N2C3=O)c1 (stereo partly drawn) [Example 18.109, 3-((((5′S,7a′R)-3′-oxo-5′-(pyrazin-2-yl)tetrahydro-3′H-spiro[cyclobutane-1,2′-pyrrolo[2,1-b]oxazol]-3-yl)oxy)methyl)benzonitrile]
20 | N#Cc1cccc(OC2CC3(C2)O[C@@H]2CC[C@@H](c4cnccn4)N2C3=O)c1 (stereo partly drawn) [Example 19.3, 3-{[(5′S,7a′R)-3′-oxo-5′-(pyrazin-2-yl)tetrahydro-3′H-spiro[cyclobutane-1,2′-pyrrolo[2,1-b][1,3]oxazol]-3-yl]oxy}benzonitrile]
16 | Cn1nccc1-c1cccc(OC2CC3(C2)O[C@@H]2CC[C@@H](c4cnccn4)N2C3=O)c1 (stereo partly drawn) [Example 19.14, (5′S,7a′R)-3-[3-(1-methyl-1H-pyrazol-5-yl)phenoxy]-5′-(pyrazin-2-yl)tetrahydro-3′H-spiro[cyclobutane-1,2′-pyrrolo[2,1-b][1,3]oxazol]-3′-one]
15 | Cn1nccc1-c1cccc(OC2CC3(C2)O[C@@H]2CC[C@@H](c4cnccn4)N2C3=O)c1 (stereo partly drawn) [Example 19.13, (5′S,7a′R)-3-[3-(1-methyl-1H-pyrazol-5-yl)phenoxy]-5′-(pyrazin-2-yl)tetrahydro-3′H-spiro[cyclobutane-1,2′-pyrrolo[2,1-b][1,3]oxazol]-3′-one]
11 | O=C1N2[C@@H](CC[C@H]2c2cnccn2)OC12CC(Oc1ccc(F)c(F)c1)C2 (stereo partly drawn) [Example 19.5, (5′S,7a′R)-3-(3,4-difluorophenoxy)-5′-(pyrazin-2-yl)tetrahydro-3′H-spiro[cyclobutane-1,2′-pyrrolo[2,1-b][1,3]oxazol]-3′-one]

From patent publication US20250154173A1 (Merck Sharp & Dohme LLC, priority 2023, published 2025)
